Results: publication PMC3118832 (Clinical Therapeutics, 2011)
Like-named read-outs stand apart in the source and are kept apart here.

Tests used:
[1] = cited from earlier work; for enzymatic autoinduction: administered continuously over several days; for CL/F / Vd/F / t1/2: healthy Vietnamese male volunteers, single oral administration, mean
clinical = settings: human, in vivo
Method: The study was conducted at HTD-HCMC. The clinical trial protocol was reviewed and supported by the internal Scientific and Ethical Committee of the HTD-HCMC and Oxford Tropical Research Ethics Committee (OxTREC 019-06), University of Oxford, Oxford, United Kingdom. The volunteers were randomly assigned to 1 of the 24 possible sequences for the 4 treatment groups (Table I). […] A fixed tablet combination of piperaquine and the reference Vietnamese formulation is not commercially available and could not be included in this trial.
Study drug was administered with 200 mL of drinking water after an overnight fast of >10 hours, according to US Food and Drug Administration (FDA) guidelines for bioequivalence studies.[30] The volunteers were asked to continue fasting for 2 hours after drug administration. Beverages containing caffeine or alcohol were not allowed on days of drug administration and blood sampling. […] Tolerability was assessed daily by the clinician during each study occasion (using an adverse-event report form) and at the follow-up visit 1 week after last study occasion (using an adverse-event report form and laboratory assessment). Adverse events were accessed by using an open question about potential health problems during the study and followed up with a questionnaire if any health problems had occurred since the last consultation.
An intravenous indwelling cannula was introduced and maintained in the antecubital vein and kept for 12 hours during blood sample collection at each study visit. A blood volume of 0.5 mL was discarded before sample collection to avoid drug dilution effects. A5-mL blood sample was drawn into lithium heparin tubes (Hong Thien My Medical Equipment Joint Stock Co., Ho Chi Minh City, Vietnam) before drug administration (predose) and at the following times after drug administration (postdose): 0.25, 0.5, 1, 1.5, 2, 2.5, 3, 4, 5, 6, 7, 8, 10, and 12 hours. The same time schedule was followed for all study visits. Saline solution (0.9% sodium chloride, 2 mL) was used to flush the lines after blood collection. Blood samples were immediately centrifuged at 3000g for 10 minutes at 20°C. Plasma were transferred to cryotubes within 10 minutes after centrifugation and stored directly at –70°C. All samples were freighted to Thailand on dry ice and analyzed by the Clinical Pharmacology Laboratory at Mahidol–Oxford Tropical Medicine Research Unit (Bangkok, Thailand).
The LC-MS/MS system consisted of an Agilent 1200 LC system including an autosampler set at 4°C and a column oven set at 40°C (Agilent Technologies Inc., Santa Clara, California) coupled with an API 5000 triple quadrupole mass spectrometer (Applied Biosystems/MDS SCIEX, Foster City, California). The lower limit of quantitation was set to 1.03 ng/mL, with a limit of detection of 0.257 ng/mL. […] Three independent quality-control samples in plasma (2.89, 40.7, and 571 ng/mL) were prepared fresh and analyzed in triplicate in each batch of extracted plasma samples. All samples were kept on ice until loaded onto the solid-phase extraction plate. The extracted samples were injected directly (5 μL) into the LC-MS/MS system.
AUC0–last values were calculated using the linear trapezoidal method for ascending concentrations and the logarithmic trapezoidal method for descending concentrations.[33] […] Cmax and Tmax concentrations were taken directly from the observed data. Vd/F and CL/F were computed individually according to standard procedures and summarized for each treatment group. […]

[2] = Tolerability: adverse-event reports and laboratory assessment at follow-up; type: in vivo, human
Method: Fifteen healthy Vietnamese male volunteers aged 18 to 55 years were enrolled in the study. No female subjects were enrolled to avoid potential risks of adverse effects on the fetus during early pregnancy. The study design and potential adverse drug effects were explained to all volunteers in their own language before initiation of any study-related procedures. Volunteers who provided written informed consent were considered for enrollment. Clinical and laboratory screenings were performed at the Hospital for Tropical Diseases in Ho Chi Minh City (HTD-HCMC), Vietnam, and the results evaluated before enrollment. Clinical evaluation and laboratory assessment (full hematology and biochemistry) were also performed at follow-up 1 week after the last study visit.

[3] = posttreatment (follow-up 1 week after last visit), mean (SD)

CO[C@H]1O[C@@H]2O[C@@]3(C)CC[C@H]4[C@H](C)CC[C@@H]([C@H]1C)[C@@]24OO3 [artemether]
enzymatic autoinduction [1]: marked ability for enzymatic autoinduction

C[C@@H]1CC[C@H]2[C@@H](C)C(=O)O[C@@H]3O[C@@]4(C)CC[C@@H]1[C@]32OO4 [artemisinin]
oral clearance in smokers compared with nonsmokers (clinical; po): significantly higher
CL/F (clinical; male): 121 mL/min/kg
Vd (clinical; male): 1320 L
Vd/F (clinical; male): 22.8 L/kg
half-life (clinical; male): 2.23 h
tolerability / adverse events ([2]; 15 healthy volunteers, single oral doses): no adverse events were reported
volunteers with higher aspartate aminotransferase at follow-up compared with baseline ([2]; levels still in the normal range): Six of the 15
Urea ([2]; posttreatment (follow-up 1 week after last of 4 single-dose visits), mean (SD)): 5.36 (1.5) [2.4–7.2] mM
ALT [2, 3]: 44.7 (25) [15–120] U/L
AST [2, 3]: 29.1 (16) [19–80] U/L
Albumin [2, 3]: 39.7 (4.2) [30–46] g/L
Basophils [2, 3]: 1.12 (0.49) [0.23–2.1] %
Eosinophils [2, 3]: 5.34 (3.2) [1.6–13] %
Erythrocytes [2, 3]: 5.23 (0.49) [4.6–6.1] 10^12/L
Ferritin [2, 3]: 117 (36) [69–190] μg/L
Globulin [2, 3]: 37.7 (6.5) [30–47] g/L
Glucose [2, 3]: 3.91 (0.35) [3.5–4.4] mM
Hematocrit [2, 3]: 47.7 (2.5) [45–53] %
Hemoglobin [2, 3]: 15.6 (0.78) [15–18] g/dL
Leukocytes [2, 3]: 7.62 (1.5) [5.4–10] 10^9/L
Lymphocytes [2, 3]: 32.5 (6.2) [21–43] %
Magnesium [2, 3]: 0.896 (0.17) [0.70–1.1] mM
Monocytes [2, 3]: 7.47 (1.4) [5.3–10] %
Neutrophils [2, 3]: 53.7 (6.5) [45–63] %
Reticulocytes [2, 3]: 0.700 (0.34) [0.10–1.5] %
Thrombocytes [2, 3]: 258 (59) [130–330] 10^9/L
Total bilirubin [2, 3]: 16.1 (4.0) [9.0–20] μM
Total protein [2, 3]: 77.3 (5.1) [67–82] g/L
CL/F ([1]; ref 31): 127 mL/min/kg
Vd/F ([1]; ref 31): 35.9 L/kg
t1/2 ([1]; ref 31): 2.10 h
CL/F ([1]; ref 35): 85 mL/min/kg
Vd/F ([1]; ref 35): 19.4 L/kg
t1/2 ([1]; ref 35): 2.59 h
CL/F ([1]; ref 36): 89.7 mL/min/kg
Vd/F ([1]; ref 36): 16.4 L/kg
t1/2 ([1]; ref 36): 2.51 h
bioavailability ([1]; in vivo): < 30%

C[C@H]1[C@@H](O)O[C@@H]2O[C@@]3(C)CC[C@H]4[C@H](C)CC[C@@H]1[C@@]24OO3 [dihydroartemisinin]
enzymatic autoinduction [1]: not
